In patent US11999716B2, “WDR5 inhibitors and modulators” (priority 2018, dated 2024) one finds GI50 data, which are given here for 24 molecules.

A value given as a limit tells only on which side of the number the result lay.

One assay has as its system MV4:11 human cancer cell lines. The assay can be described thus: Cellular viability / anti-proliferative activity, CellTiter-Glo, 5 day protocol. In kind it is cell-based. As to conditions: Homo sapiens, MV4-11, 120 h, MV4:11 cells; 5 day incubation; CellTiter-Glo; mean of minimum two replicates; read-out: GI50 on cellular proliferation of MV4:11 human cancer cell lines. The method, boiled down:
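Compounds were tested over 22 two-fold dilutions starting at 30 μM in 0.3% DMSO, with 200 cells per well (7200 cells/mL). Viability was measured by CellTiter-Glo luminescence at day 5.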
(ATP-based viability assays read luminescence as a measure of living cells.)
`Cc1cc([C@H](C)N2CCc3c(cc(Cn4ccnc4C)cc3-c3cn(C)nc3C)C2=O)ccc1F` [Example 146, (S)-5-(1,3-Dimethyl-1H-pyrazol-4-yl)-2-(1-(4-fluoro-3-methylphenyl)ethyl)-7-((2-methyl-1H-imidazol-1-yl)methyl)-3,4-dihydroisoquinolin-1(2H)-one]: the GI50 is under 50 nM.

As to `Cn1cc(-c2cc(Cn3ccn(C)c3=N)cc3c2CCN(Cc2cc(C4CC4)nn2C)C3=O)c(C(F)(F)F)n1` [Example 147, 2-((3-Cyclopropyl-1-methyl-1H-pyrazol-5-yl)methyl)-7-((2-imino-3-methyl-2,3-dihydro-1H-imidazol-1-yl)methyl)-5-(1-methyl-3-(trifluoromethyl)-1H-pyrazol-4-yl)-3,4-dihydroisoquinolin-1(2H)-one], the GI50 was found to be 73 nM. Same read-out and setting: the value for `Cc1nccn1Cc1cc2c(c(-c3cn(C)nc3C(F)(F)F)c1)CCN(Cc1cc(C3CC3)nn1C)C2=O` [Example 148, 2-((3-Cyclopropyl-1-methyl-1H-pyrazol-5-yl)methyl)-7-((2-methyl-1H-imidazol-1-yl)methyl)-5-(1-methyl-3-(trifluoromethyl)-1H-pyrazol-4-yl)-3,4-dihydroisoquinolin-1(2H)-one] was under 50 nM; that for `CCc1ccnc(CN2CCc3c(cc(Cn4ccnc4CC)cc3-c3cn(CC)nc3C(F)(F)F)C2=O)c1` [Example 149, 7-((2-Ethyl-1H-imidazol-1-yl)methyl)-5-(1-ethyl-3-(trifluoromethyl)-1H-pyrazol-4-yl)-2-((4-ethylpyridin-2-yl)methyl)-3,4-dihydroisoquinolin-1(2H)-one] was under 50 nM. With `Cn1cc(-c2cc(Cn3ccoc3=N)cc3c2CCN(Cc2cc(C4CC4)nn2C)C3=O)c(C(F)(F)F)n1` [Example 150, 2-((3-Cyclopropyl-1-methyl-1H-pyrazol-5-yl)methyl)-7-((2-iminooxazol-3(2H)-yl)methyl)-5-(1-methyl-3-(trifluoromethyl)-1H-pyrazol-4-yl)-3,4-dihydroisoquinolin-1(2H)-one], the GI50 is under 50 nM. On to `CCn1cc(-c2cc(CN3CCSC3=N)cc3c2CCN([C@@H](C)c2cc(OC)ccn2)C3=O)c(C(F)(F)F)n1` [Example 151, (S)-5-(1-Ethyl-3-(trifluoromethyl)-1H-pyrazol-4-yl)-7-((2-iminothiazolidin-3-yl)methyl)-2-(1-(4-methoxypyridin-2-yl)ethyl)-3,4-dihydroisoquinolin-1(2H)-one], for which the GI50 was under 50 nM. Still for that read-out and setting: the value for `CCn1cc(-c2cc(Cn3cnn(C)c3=N)cc3c2CCN([C@@H](C)c2cc(OC)ccn2)C3=O)c(C(F)(F)F)n1` [Example 152, (S)-5-(1-ethyl-3-(trifluoromethyl)-1H-pyrazol-4-yl)-7-((5-imino-1-methyl-1,5-dihydro-4H-1,2,4-triazol-4-yl)methyl)-2-(1-(4-methoxypyridin-2-yl)ethyl)-3,4-dihydroisoquinolin-1(2H)-one] was under 50 nM. Same read-out and setting: the value for `COc1cc(CN2CCc3c(cc(Cn4ccn(C)c4=N)cc3-c3nc(C)cn3C)C2=O)cc(OC)c1` [Example 153, 2-(3,5-Dimethoxybenzyl)-5-(1,4-dimethyl-1H-imidazol-2-yl)-7-((2-imino-3-methyl-2,3-dihydro-1H-imidazol-1-yl)methyl)-3,4-dihydroisoquinolin-1(2H)-one] was over 938 nM; that for `COc1cc(CN2CCc3c(cc(Cn4ccn(C)c4=N)cc3-c3cc(C)nc(C)c3)C2=O)cc(OC)c1` [Example 154, 2-(3,5-Dimethoxybenzyl)-5-(2,6-dimethylpyridin-4-yl)-7-((2-imino-3-methyl-2,3-dihydro-1H-imidazol-1-yl)methyl)-3,4-dihydroisoquinolin-1(2H)-one] was 559 nM; that for `CCc1nccn1Cc1cc2c(c(-c3cc(C)nc(C)c3)c1)CCN(Cc1cc(OC)cc(OC)c1)C2=O` [Example 155, 2-(3,5-Dimethoxybenzyl)-5-(2,6-dimethylpyridin-4-yl)-7-((2-ethyl-1H-imidazol-1-yl)methyl)-3,4-dihydroisoquinolin-1(2H)-one] was 407 nM. Still for that read-out and setting: next, `CCn1cc(-c2cc(Cn3ccnc3C)cc3c2CCN([C@@H](C)c2cc(OC)ccn2)C3=O)c(C(F)(F)F)n1` [Example 156, (S)-5-(1-Ethyl-3-(trifluoromethyl)-1H-pyrazol-4-yl)-2-(1-(4-methoxypyridin-2-yl)ethyl)-7-((2-methyl-1H-imidazol-1-yl)methyl)-3,4-dihydroisoquinolin-1(2H)-one]: under 50 nM; `Cc1cncc(CN2CCc3c(cc(Cn4ccnc4C)cc3-c3cn(C)nc3C(F)(F)F)C2=O)c1` [Example 157, 7-((2-Methyl-1H-imidazol-1-yl)methyl)-5-(1-methyl-3-(trifluoromethyl)-1H-pyrazol-4-yl)-2-((5-methylpyridin-3-yl)methyl)-3,4-dihydroisoquinolin-1(2H)-one]: under 50 nM. As for `CCn1cc(-c2cc(Cn3ccnc3C3CC3)cc3c2CCN([C@@H](C)c2cc(OC)ccn2)C3=O)c(C(F)(F)F)n1` [Example 159, (S)-7-((2-Cyclopropyl-1H-imidazol-1-yl)methyl)-5-(1-ethyl-3-(trifluoromethyl)-1H-pyrazol-4-yl)-2-(1-(4-methoxypyridin-2-yl)ethyl)-3,4-dihydroisoquinolin-1(2H)-one], the GI50 is under 50 nM.

Turning to `CCn1cc(-c2cc(Cn3ccnc3)cc3c2CCN([C@@H](C)c2cc(OC)ccn2)C3=O)c(C(F)(F)F)n1` [Example 160, (S)-7-((1H-Imidazol-1-yl)methyl)-5-(1-ethyl-3-(trifluoromethyl)-1H-pyrazol-4-yl)-2-(1-(4-methoxypyridin-2-yl)ethyl)-3,4-dihydroisoquinolin-1(2H)-one], the GI50 was under 50 nM.

In the case of `CCn1cc(-c2cc(Cn3ccnc3NC)cc3c2CCN([C@@H](C)c2cc(OC)ccn2)C3=O)c(C(F)(F)F)n1` [Example 161, (S)-5-(1-Ethyl-3-(trifluoromethyl)-1H-pyrazol-4-yl)-2-(1-(4-methoxypyridin-2-yl)ethyl)-7-((2-(methylamino)-1H-imidazol-1-yl)methyl)-3,4-dihydroisoquinolin-1(2H)-one], the GI50 was under 50 nM. On the same count and under the same terms, next, `CCn1cc(-c2cc(Cn3ccnc3C(C)C)cc3c2CCN([C@@H](C)c2cc(OC)ccn2)C3=O)c(C(F)(F)F)n1` [Example 162, (S)-5-(1-Ethyl-3-(trifluoromethyl)-1H-pyrazol-4-yl)-7-((2-isopropyl-1H-imidazol-1-yl)methyl)-2-(1-(4-methoxypyridin-2-yl)ethyl)-3,4-dihydroisoquinolin-1(2H)-one]: 13400 nM; `Cc1cc([C@H](C)N2CCc3c(cc(Cn4ccnc4C)cc3-c3cn(C)nc3C(F)(F)F)C2=O)ncc1F` [Example 163, (S)-2-(1-(5-fluoro-4-methylpyridin-2-yl)ethyl)-7-((2-methyl-1H-imidazol-1-yl)methyl)-5-(1-methyl-3-(trifluoromethyl)-1H-pyrazol-4-yl)-3,4-dihydroisoquinolin-1(2H)-one]: under 50 nM; `CCc1nccn1Cc1cc2c(c(-c3cn(C)nc3C(F)(F)F)c1)CCN([C@@H](C)c1cc(C)cc(C)n1)C2=O` [Example 164, (S)-2-(1-(4,6-Dimethylpyridin-2-yl)ethyl)-7-((2-ethyl-1H-imidazol-1-yl)methyl)-5-(1-methyl-3-(trifluoromethyl)-1H-pyrazol-4-yl)-3,4-dihydroisoquinolin-1(2H)-one]: 57 nM. On to `Cc1cc(C)nc([C@H](C)N2CCc3c(cc(Cn4ccnc4C)cc3-c3cn(C)nc3C(F)(F)F)C2=O)c1` [Example 165, (S)-2-(1-(4,6-Dimethylpyridin-2-yl)ethyl)-7-((2-methyl-1H-imidazol-1-yl)methyl)-5-(1-methyl-3-(trifluoromethyl)-1H-pyrazol-4-yl)-3,4-dihydroisoquinolin-1(2H)-one], for which the GI50 was under 50 nM.

Turning to `Cc1cc(C)nc([C@@H](C)N2CCc3c(cc(Cn4ccnc4C)cc3-c3cn(C)nc3C(F)(F)F)C2=O)c1` [Example 166, (R)-2-(1-(4,6-Dimethylpyridin-2-yl)ethyl)-7-((2-methyl-1H-imidazol-1-yl)methyl)-5-(1-methyl-3-(trifluoromethyl)-1H-pyrazol-4-yl)-3,4-dihydroisoquinolin-1(2H)-one], the GI50 was determined as 89 nM.

In the case of `Cc1nccn1Cc1cc2c(c(-c3cn(C)nc3C(F)(F)F)c1)CCN(CC1CCCOC1)C2=O` (stereo not shown) [Example 167, 7-((2-Methyl-1H-imidazol-1-yl)methyl)-5-(1-methyl-3-(trifluoromethyl)-1H-pyrazol-4-yl)-2-((tetrahydro-2H-pyran-3-yl)methyl)-3,4-dihydroisoquinolin-1(2H)-one], the GI50 was 3020 nM. Turning to `COc1ccnc([C@H](C)N2CCc3c(cc(Cn4ccnc4C)cc3-c3ccc(F)cc3C)C2=O)c1` [Example 168, (S)-5-(4-Fluoro-2-methylphenyl)-2-(1-(4-methoxypyridin-2-yl)ethyl)-7-((2-methyl-1H-imidazol-1-yl)methyl)-3,4-dihydroisoquinolin-1(2H)-one], the GI50 was under 50 nM. On the same count and under the same terms, next, `Cc1nccn1Cc1cc2c(c(-c3cn(C)nc3C(F)(F)F)c1)CCN(CC1CCCCO1)C2=O` (stereo not shown) [Example 169, 7-((2-Methyl-1H-imidazol-1-yl)methyl)-5-(1-methyl-3-(trifluoromethyl)-1H-pyrazol-4-yl)-2-((tetrahydro-2H-pyran-2-yl)methyl)-3,4-dihydroisoquinolin-1(2H)-one]: 2000 nM; `Cc1nccn1Cc1cc2c(c(-c3cn(C)nc3C(F)(F)F)c1)CCN(Cc1ccc3c(c1)OCO3)C2=O` [Example 170, 2-(Benzo[d][1,3]dioxol-5-ylmethyl)-7-((2-methyl-1H-imidazol-1-yl)methyl)-5-(1-methyl-3-(trifluoromethyl)-1H-pyrazol-4-yl)-3,4-dihydroisoquinolin-1(2H)-one]: 835 nM.

Still in this assay, the particulars now being: MV4:11 cells; 5 day incubation; CellTiter-Glo; mean of minimum two replicates; read-out: GI50 on cellular proliferation of MV4:11 human cancer cell lines.
Turning to `Cn1cc(-c2cc(Cn3ccn(C)c3=N)cc3c2CCN(Cc2cc(C4CC4)nn2C)C3=O)c(C(F)(F)F)n1` [Example 147, 2-((3-Cyclopropyl-1-methyl-1H-pyrazol-5-yl)methyl)-7-((2-imino-3-methyl-2,3-dihydro-1H-imidazol-1-yl)methyl)-5-(1-methyl-3-(trifluoromethyl)-1H-pyrazol-4-yl)-3,4-dihydroisoquinolin-1(2H)-one], the GI50 came out at 81 nM.
